Residual activity data for two molecules are collected here from article PMC9030254, “Target Hopping from Protein Kinases to PXR: Identification of Small-Molecule Protein Kinase Inhibitors as Selective Modulators of Pregnane X Receptor from TüKIC Library” (Cells, 2022).

Holding throughout (assay): Kinase profiling
Common to all, as to type: biochemical

One test deals with T1, EPHA3 (Homo sapiens, UniProt P29320).
T1 construct: purchased ProQinase (Freiburg, Germany)
T1 sequence (P29320 21-983): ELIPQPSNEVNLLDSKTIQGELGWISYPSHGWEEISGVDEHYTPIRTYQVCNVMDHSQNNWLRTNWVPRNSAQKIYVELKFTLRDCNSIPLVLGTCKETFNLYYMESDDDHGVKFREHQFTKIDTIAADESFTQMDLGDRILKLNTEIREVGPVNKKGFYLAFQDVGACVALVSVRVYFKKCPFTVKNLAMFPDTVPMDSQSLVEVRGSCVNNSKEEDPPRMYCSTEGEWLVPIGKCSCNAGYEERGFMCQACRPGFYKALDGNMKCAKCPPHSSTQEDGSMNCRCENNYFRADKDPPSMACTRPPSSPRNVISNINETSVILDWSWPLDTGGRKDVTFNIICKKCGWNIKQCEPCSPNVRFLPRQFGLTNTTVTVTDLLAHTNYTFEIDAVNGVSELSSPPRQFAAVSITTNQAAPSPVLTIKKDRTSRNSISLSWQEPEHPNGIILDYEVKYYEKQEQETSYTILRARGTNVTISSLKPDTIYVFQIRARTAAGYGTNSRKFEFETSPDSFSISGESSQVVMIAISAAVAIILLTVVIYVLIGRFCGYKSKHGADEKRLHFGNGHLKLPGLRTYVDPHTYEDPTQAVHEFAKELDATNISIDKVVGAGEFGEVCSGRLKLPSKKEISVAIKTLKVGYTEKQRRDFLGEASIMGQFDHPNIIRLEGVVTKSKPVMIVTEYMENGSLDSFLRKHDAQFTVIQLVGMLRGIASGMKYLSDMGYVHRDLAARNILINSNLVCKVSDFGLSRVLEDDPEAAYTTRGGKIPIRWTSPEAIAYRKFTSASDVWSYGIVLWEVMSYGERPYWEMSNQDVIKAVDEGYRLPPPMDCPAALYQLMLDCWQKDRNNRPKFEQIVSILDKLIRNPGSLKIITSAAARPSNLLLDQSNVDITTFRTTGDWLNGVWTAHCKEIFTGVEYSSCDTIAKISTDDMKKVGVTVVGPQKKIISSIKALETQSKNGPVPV
The method, then:
(§1) The analysis was performed by ProQinase (Freiburg, Germany).

For another test, the target named is T2, CDK1/CycA2 (Homo sapiens, UniProt P06493).
T2 construct: purchased ProQinase (Freiburg, Germany)
T2 sequence (P06493 whole entry): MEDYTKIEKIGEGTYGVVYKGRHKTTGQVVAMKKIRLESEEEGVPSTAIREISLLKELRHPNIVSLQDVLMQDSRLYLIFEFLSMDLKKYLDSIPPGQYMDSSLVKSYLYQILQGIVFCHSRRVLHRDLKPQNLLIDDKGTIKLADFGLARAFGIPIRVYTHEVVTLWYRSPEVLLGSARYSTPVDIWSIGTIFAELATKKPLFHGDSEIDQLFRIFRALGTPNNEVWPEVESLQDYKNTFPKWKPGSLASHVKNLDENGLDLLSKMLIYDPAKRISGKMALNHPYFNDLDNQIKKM
T2 sequence (P20248 whole entry partner): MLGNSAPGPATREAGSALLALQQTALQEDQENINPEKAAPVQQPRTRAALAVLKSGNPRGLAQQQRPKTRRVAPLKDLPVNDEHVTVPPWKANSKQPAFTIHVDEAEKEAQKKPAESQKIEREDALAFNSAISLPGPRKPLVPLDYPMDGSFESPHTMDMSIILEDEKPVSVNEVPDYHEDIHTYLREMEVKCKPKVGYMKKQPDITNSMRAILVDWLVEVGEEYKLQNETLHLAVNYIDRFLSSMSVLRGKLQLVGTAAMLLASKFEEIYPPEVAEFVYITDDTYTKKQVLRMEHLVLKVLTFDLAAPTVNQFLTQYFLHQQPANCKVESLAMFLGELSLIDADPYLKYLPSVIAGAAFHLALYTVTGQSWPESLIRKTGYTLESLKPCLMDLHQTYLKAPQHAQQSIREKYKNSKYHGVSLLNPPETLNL
How it is done:
as §1

In the next test the target is T3, MATK (Homo sapiens, UniProt P42679).
T3 construct: purchased ProQinase (Freiburg, Germany)
T3 sequence (P42679 1-507): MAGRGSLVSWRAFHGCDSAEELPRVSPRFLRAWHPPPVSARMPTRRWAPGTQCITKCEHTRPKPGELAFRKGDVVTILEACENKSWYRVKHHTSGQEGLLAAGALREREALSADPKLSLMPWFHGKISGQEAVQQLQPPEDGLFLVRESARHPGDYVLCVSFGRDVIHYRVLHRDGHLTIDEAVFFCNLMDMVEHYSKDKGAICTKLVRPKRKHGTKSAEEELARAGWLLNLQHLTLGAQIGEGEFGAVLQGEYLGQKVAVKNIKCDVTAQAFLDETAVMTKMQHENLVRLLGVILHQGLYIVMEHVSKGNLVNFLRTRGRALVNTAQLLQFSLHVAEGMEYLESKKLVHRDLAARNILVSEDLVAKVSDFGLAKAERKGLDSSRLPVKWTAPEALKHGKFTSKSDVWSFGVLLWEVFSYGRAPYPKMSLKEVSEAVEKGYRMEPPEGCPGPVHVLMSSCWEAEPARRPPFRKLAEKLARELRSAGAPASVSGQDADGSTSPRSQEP
How it is done: as §1

Another test addresses T4, MTOR (Homo sapiens, UniProt P42345).
T4 construct: purchased ProQinase (Freiburg, Germany)
How it is done:
as §1

The next test addresses T5, CK2alpha1 (Homo sapiens, UniProt P68400).
T5 construct: purchased ProQinase (Freiburg, Germany)
The method, then: as §1

A further test addresses T6, PAK7 (Homo sapiens, UniProt Q9P286).
T6 construct: purchased ProQinase (Freiburg, Germany)
The method, then:
as §1

The next test has as its target T7, VEGFR1 (Homo sapiens, UniProt P17948).
T7 construct: purchased ProQinase (Freiburg, Germany)
How it is done: as §1

For another test, the target named is T8, BUB1B (Homo sapiens, UniProt O60566).
T8 construct: purchased ProQinase (Freiburg, Germany)
T8 sequence (O60566 whole entry): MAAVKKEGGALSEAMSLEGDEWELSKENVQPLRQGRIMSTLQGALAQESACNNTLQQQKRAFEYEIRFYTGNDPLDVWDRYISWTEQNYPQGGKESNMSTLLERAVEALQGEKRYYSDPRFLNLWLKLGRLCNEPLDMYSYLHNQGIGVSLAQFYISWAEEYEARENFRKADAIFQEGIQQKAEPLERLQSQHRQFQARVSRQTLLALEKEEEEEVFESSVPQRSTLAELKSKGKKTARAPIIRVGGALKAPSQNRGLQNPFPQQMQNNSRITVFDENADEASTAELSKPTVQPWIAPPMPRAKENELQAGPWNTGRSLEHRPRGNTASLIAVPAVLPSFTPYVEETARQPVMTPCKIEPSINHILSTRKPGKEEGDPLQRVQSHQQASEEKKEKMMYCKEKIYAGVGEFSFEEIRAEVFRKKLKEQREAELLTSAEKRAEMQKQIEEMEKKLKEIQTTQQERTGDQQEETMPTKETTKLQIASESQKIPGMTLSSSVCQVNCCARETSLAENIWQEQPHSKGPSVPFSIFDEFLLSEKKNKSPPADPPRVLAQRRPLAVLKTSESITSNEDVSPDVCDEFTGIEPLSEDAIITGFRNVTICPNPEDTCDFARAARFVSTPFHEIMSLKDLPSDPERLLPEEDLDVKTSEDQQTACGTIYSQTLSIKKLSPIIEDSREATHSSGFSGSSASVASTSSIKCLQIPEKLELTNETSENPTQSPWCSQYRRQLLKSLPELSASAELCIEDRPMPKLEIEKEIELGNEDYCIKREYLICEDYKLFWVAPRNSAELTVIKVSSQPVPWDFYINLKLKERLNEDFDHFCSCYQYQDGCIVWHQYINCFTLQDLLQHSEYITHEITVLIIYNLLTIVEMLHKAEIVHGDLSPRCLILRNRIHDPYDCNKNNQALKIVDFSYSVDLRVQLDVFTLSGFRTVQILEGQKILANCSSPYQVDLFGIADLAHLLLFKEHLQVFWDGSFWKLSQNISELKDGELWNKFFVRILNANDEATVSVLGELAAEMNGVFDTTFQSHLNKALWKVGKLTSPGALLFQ
The method, then: as §1

Another test deals with T9, CAMK1D (Homo sapiens, UniProt Q8IU85).
T9 construct: purchased ProQinase (Freiburg, Germany)
T9 sequence (Q8IU85 whole entry): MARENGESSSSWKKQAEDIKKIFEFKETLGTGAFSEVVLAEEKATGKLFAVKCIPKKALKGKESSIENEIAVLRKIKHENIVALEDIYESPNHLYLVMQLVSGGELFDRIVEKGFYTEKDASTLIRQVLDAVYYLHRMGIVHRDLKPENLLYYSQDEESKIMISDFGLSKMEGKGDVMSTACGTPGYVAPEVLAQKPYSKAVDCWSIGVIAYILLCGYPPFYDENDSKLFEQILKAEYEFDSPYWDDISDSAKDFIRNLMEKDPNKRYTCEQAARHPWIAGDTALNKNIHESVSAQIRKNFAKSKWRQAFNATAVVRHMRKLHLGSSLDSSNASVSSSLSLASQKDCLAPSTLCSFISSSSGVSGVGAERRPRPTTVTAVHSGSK
How it is done: as §1

The target of a further test is T10, MARK4 (Homo sapiens, UniProt Q96L34).
T10 construct: purchased ProQinase (Freiburg, Germany)
T10 sequence (Q96L34 1-752): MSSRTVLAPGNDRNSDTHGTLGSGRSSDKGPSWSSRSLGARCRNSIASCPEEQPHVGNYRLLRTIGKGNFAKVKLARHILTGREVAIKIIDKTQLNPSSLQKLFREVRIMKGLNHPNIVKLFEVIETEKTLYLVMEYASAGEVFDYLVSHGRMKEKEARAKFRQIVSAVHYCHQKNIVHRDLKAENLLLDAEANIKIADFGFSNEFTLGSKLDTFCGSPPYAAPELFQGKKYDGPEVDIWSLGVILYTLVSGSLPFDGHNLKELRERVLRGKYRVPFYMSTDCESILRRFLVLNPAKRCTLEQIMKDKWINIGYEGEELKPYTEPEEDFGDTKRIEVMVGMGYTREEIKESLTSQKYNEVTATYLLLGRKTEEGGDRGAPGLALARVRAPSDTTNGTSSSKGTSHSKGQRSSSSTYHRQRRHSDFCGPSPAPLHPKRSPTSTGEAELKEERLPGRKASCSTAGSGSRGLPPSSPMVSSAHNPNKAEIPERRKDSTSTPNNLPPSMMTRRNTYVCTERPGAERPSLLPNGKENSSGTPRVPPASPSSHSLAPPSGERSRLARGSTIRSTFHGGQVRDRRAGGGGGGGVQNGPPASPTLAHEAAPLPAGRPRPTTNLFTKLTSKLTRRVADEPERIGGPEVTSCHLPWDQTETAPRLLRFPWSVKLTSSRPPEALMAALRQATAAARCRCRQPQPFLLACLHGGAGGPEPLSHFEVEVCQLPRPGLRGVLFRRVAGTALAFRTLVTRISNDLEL
The method, then: as §1

For another test, the target named is T11, ERK2 (Homo sapiens, UniProt P28482).
T11 construct: purchased ProQinase (Freiburg, Germany)
T11 sequence (P28482 whole entry): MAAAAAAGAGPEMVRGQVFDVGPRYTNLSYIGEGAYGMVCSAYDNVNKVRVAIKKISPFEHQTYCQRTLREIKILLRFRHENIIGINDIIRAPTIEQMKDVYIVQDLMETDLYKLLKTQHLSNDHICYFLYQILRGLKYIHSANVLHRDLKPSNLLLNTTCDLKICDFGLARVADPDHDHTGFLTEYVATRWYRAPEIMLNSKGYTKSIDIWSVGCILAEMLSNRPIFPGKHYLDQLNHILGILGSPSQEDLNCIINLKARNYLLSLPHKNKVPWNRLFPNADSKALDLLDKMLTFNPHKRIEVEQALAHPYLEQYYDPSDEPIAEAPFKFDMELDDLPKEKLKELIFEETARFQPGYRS
How it is done:
as §1

T6 sequence (Q9P286 whole entry): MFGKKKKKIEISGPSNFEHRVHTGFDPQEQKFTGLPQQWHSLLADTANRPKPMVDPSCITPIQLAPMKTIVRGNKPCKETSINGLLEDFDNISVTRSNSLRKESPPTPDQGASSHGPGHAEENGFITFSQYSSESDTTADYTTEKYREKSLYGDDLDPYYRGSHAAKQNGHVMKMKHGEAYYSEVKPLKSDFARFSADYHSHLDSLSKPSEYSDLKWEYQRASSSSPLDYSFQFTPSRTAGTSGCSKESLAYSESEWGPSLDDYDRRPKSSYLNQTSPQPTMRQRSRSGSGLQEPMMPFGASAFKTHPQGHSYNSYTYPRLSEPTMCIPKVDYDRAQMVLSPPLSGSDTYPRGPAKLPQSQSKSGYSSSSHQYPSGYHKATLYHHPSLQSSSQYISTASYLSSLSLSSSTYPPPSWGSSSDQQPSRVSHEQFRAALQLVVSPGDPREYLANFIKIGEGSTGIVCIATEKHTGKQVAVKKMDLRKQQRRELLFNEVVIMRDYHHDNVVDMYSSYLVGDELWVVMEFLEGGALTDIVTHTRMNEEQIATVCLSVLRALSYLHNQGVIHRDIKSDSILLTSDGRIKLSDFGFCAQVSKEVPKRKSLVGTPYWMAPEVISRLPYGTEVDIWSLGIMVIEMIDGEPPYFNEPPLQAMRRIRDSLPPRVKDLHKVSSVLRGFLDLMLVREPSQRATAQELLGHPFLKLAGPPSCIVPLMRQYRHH
T7 sequence (P17948 27-1338): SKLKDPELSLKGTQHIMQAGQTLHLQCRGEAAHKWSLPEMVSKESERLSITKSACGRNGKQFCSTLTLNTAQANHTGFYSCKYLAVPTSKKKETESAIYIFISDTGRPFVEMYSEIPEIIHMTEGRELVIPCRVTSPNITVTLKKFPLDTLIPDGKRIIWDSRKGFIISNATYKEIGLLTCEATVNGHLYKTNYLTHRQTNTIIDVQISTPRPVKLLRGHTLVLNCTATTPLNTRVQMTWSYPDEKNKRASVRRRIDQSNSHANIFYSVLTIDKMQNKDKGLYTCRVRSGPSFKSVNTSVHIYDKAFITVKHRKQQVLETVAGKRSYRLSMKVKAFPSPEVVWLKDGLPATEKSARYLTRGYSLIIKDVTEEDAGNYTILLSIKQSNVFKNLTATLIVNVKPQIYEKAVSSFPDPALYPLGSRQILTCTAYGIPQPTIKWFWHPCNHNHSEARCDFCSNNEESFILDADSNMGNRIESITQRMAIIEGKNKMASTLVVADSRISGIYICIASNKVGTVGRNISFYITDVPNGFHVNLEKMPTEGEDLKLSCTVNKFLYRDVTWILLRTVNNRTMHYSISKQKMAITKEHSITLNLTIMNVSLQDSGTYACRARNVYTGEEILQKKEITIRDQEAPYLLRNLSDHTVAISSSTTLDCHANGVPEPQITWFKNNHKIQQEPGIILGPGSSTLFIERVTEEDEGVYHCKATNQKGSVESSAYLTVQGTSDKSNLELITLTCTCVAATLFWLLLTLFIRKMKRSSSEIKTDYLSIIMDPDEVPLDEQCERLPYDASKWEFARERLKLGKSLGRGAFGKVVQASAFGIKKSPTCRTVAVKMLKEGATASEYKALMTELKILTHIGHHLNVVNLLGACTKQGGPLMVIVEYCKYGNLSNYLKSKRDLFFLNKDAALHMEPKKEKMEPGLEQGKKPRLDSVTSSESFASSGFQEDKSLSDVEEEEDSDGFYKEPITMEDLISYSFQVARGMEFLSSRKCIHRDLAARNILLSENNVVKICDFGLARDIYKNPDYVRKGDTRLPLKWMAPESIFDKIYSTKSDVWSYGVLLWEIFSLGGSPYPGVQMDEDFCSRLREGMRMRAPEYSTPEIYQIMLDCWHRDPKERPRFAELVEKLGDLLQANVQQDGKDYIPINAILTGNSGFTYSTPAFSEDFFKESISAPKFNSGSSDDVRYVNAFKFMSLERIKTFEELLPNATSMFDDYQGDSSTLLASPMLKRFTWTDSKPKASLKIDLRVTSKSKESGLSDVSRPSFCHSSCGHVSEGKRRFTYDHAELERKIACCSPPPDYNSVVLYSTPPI
T5 sequence (P68400 whole entry): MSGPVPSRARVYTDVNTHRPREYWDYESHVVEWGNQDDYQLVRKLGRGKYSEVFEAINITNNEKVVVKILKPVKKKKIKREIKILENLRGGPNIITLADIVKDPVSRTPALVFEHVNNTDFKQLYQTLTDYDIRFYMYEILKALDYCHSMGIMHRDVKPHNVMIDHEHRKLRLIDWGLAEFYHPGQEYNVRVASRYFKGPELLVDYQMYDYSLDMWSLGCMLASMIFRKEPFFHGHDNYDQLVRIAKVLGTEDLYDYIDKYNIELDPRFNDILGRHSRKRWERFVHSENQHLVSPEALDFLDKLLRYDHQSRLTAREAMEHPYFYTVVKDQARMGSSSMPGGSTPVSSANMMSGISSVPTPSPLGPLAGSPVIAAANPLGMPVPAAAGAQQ

Take `O=C(Cc1ccccc1)Nc1ccc(F)c(Nc2ccc3c(c2)CCCCC3=O)c1` [Compound 100]: the Residual activity at EPHA3 (1.0E-05 M) was 86 % of control; at EPHA3 (1.0E-06 M), 96 % of control; at CDK1/CycA2 (1.0E-05 M) it was 83 % of control; on CDK1/CycA2 (1.0E-06 M) it was 85 % of control; at MATK (1.0E-05 M), 86 % of control; at MATK (1.0E-06 M), 101 % of control. Also, the Residual activity at MTOR (1.0E-05 M) is on record as 92 % of control; at MTOR (1.0E-06 M), 93 % of control; at CK2alpha1 (1.0E-05 M) it was 106 % of control; at CK2alpha1 (1.0E-06 M) it was 102 % of control; at PAK7 (1.0E-05 M), 92 % of control; on PAK7 (1.0E-06 M) it was 99 % of control. For the same molecule, the Residual activity at VEGFR1 (1.0E-05 M) is reported as 93 % of control; on VEGFR1 (1.0E-06 M), 100 % of control; at BUB1B (1.0E-05 M), 96 % of control; at BUB1B (1.0E-06 M), 108 % of control; at CAMK1D (1.0E-05 M), 88 % of control; on CAMK1D (1.0E-06 M) it was 85 % of control. Moreover, the Residual activity on MARK4 (1.0E-05 M) is 94 % of control; on MARK4 (1.0E-06 M), 99 % of control; on ERK2 (1.0E-05 M), 90 % of control; at ERK2 (1.0E-06 M), 101 % of control.
Take `O=C(Nc1ccc(F)c(Nc2ccc3c(c2)CCCCC3=O)c1)c1cccc(F)c1` [Compound 109]: the Residual activity is 94 % of control on EPHA3 (1.0E-05 M); 92 % of control on EPHA3 (1.0E-06 M); 88 % of control on CDK1/CycA2 (1.0E-05 M); 86 % of control at CDK1/CycA2 (1.0E-06 M); 95 % of control at MATK (1.0E-05 M); 94 % of control on MATK (1.0E-06 M). The Residual activity on MTOR (1.0E-05 M) is recorded as 94 % of control; at MTOR (1.0E-06 M), 94 % of control; on CK2alpha1 (1.0E-05 M) it was 98 % of control; at CK2alpha1 (1.0E-06 M), 102 % of control; on PAK7 (1.0E-05 M) it was 93 % of control; at PAK7 (1.0E-06 M), 101 % of control. Further, the Residual activity at VEGFR1 (1.0E-05 M) was 93 % of control; on VEGFR1 (1.0E-06 M), 101 % of control; at BUB1B (1.0E-05 M), 106 % of control; on BUB1B (1.0E-06 M), 104 % of control; on CAMK1D (1.0E-05 M) it was 89 % of control; on CAMK1D (1.0E-06 M), 93 % of control. Further, the Residual activity on MARK4 (1.0E-05 M) is given as 91 % of control; on MARK4 (1.0E-06 M), 102 % of control; on ERK2 (1.0E-05 M) it was 93 % of control; at ERK2 (1.0E-06 M), 95 % of control.
